{"source": "ChEMBL document CHEMBL1201862", "about": "“PubChem BioAssay data set” (2004)", "key": {"[1]": {"experiment": "cytotoxicity in MITF-independent A375 cells – cell-based, CellTiter-Glo luminescence, dry powder, set 4, counter-screen for MITF inhibitor project, dose response (AID 624364);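 also: A375 melanoma cells are MITF independent so this is a counter screen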", "assay_type": "functional", "settings": "A-375"}, "[2]": {"experiment": "viability loss in MITF-independent A375 cells – cell-based, CellTiter-Glo luminescence, dry powder, set 2, counter-screen for MITF inhibitor project, dose response (AID 624489);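 also: actives are compounds lowering A375 viability meaning general cytotoxicity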", "assay_type": "functional", "settings": "A-375"}, "[3]": {"experiment": "blockers of bursicon-stimulated LGR2 cAMP reporter – cell-based, HEK293, CRE-luciferase reporter, cherry pick, set 2, dose response (AID 743343);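 also: transfected cells were stimulated with diluted bursicon conditioned medium after compound addition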", "assay_type": "functional"}, "[4]": {"experiment": "toxicity toward HepG2 liver cells – cell-based, plate reader, cherry-pick, antagonist series, cytotoxicity control, dose response (AID 743416)", "assay_type": "functional"}, "[5]": {"experiment": "blockade of melanocortin 4 receptor signaling – cell-based, plate reader, cherry pick, counter-screen for LGR2 antagonist project, dose response (AID 743444);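 also: transfected HEK 293 cells stimulated with alpha-MSH peptide; potency of inhibitors of the alpha-MSH evoked signal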", "assay_type": "functional"}, "[6]": {"experiment": "A549 cell cytotoxicity, dose response, cytotoxicity control, plate reader, cherry-pick, antagonist series (AID 743412)", "assay_type": "functional, cell-based"}, "[7]": {"experiment": "growth inhibition of yeast DHODH-expressing 3D7 parasites – SYBR Green, dry powder samples, dose response (AID 1159570);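 also: parasite growth measured after 72 hours of compound exposure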", "assay_type": "functional, cell-based"}, "[8]": {"experiment": "toxicity to human HepG2 hepatoma cells – cell-based, plate reader, dry powder samples, cytotoxicity control, dose response (AID 1159569);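 also: inhibitor potency with signal falling toward the positive control level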", "assay_type": "functional"}, "[9]": {"experiment": "Dd2 malaria parasite growth inhibition potency – SYBR Green, dry powder samples, dose response (AID 1159566);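 also: potency for growth inhibition with lower SYBR green DNA signal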", "assay_type": "functional, cell-based"}, "[10]": {"experiment": "P. falciparum Dd2 growth inhibitors, dose response, SYBR Green, cherry-picked samples (AID 1159567)", "assay_type": "functional, cell-based"}, "[11]": {"experiment": "growth inhibition of PfATP4-mutant resistant parasites – NITD609-resistant line, SYBR Green, dry powder, dose response (AID 1159571);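 also: parasites synchronized at ring stage by sorbitol before testing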", "assay_type": "functional, cell-based"}, "[12]": {"experiment": "IGROV1 cell killing – plate reader, dry powder samples, PAX8 inhibitor project, dose response (AID 743043)", "assay_type": "functional, cell-based", "settings": "IGROV-1"}, "[13]": {"experiment": "OVCAR-3 cell viability loss – plate reader, dry powder samples, PAX8 inhibitor project, dose response (AID 743044)", "assay_type": "functional, cell-based"}, "[14]": {"experiment": "OVCAR8 cell viability loss – plate reader, dry powder samples, PAX8 project, dose response (AID 743197)", "assay_type": "functional, cell-based", "settings": "OVCAR-8"}, "[15]": {"experiment": "NIH3T3 cell viability loss – ATP luminescence, mouse fibroblasts, counter-screen, dose response (AID 2010);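 also: cells exposed to compound for about 90 hours before reading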", "assay_type": "functional, cell-based"}, "[16]": {"target": "T1, Zinc finger protein mex-5 (Caenorhabditis elegans, UniProt Q9XUB2)", "T1 sequence (Q9XUB2 whole entry)": "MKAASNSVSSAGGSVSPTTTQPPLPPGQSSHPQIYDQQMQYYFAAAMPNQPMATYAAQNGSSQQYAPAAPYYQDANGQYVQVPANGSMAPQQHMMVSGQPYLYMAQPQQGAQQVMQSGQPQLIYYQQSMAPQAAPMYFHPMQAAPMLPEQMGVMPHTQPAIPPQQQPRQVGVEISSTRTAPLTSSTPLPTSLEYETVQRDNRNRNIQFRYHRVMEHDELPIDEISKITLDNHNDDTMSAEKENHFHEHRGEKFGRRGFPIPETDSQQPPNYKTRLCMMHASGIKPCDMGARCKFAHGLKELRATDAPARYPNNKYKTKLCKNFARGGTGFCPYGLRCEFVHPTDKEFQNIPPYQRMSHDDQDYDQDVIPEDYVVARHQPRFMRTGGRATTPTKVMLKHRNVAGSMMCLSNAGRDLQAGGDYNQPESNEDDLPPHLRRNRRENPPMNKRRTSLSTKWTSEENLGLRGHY", "experiment": "potency of MEX-5 RNA-binding blockers – biochemical, C. elegans, fluorescence polarization, dose response (AID 1960)"}, "[17]": {"experiment": "Trypanosoma cruzi growth suppression in host cells – NIH3T3 host cells, beta-gal luminescence, confirmation (AID 2044);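 also: luminescent beta-galactosidase reporter signal from transgenic T. cruzi replicating inside host cells; inhibitors lower the luminescence signal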", "assay_type": "functional, cell-based"}, "Albumin": {"target": "Albumin (Bos taurus, UniProt P02769)", "sequence (P02769 whole entry)": "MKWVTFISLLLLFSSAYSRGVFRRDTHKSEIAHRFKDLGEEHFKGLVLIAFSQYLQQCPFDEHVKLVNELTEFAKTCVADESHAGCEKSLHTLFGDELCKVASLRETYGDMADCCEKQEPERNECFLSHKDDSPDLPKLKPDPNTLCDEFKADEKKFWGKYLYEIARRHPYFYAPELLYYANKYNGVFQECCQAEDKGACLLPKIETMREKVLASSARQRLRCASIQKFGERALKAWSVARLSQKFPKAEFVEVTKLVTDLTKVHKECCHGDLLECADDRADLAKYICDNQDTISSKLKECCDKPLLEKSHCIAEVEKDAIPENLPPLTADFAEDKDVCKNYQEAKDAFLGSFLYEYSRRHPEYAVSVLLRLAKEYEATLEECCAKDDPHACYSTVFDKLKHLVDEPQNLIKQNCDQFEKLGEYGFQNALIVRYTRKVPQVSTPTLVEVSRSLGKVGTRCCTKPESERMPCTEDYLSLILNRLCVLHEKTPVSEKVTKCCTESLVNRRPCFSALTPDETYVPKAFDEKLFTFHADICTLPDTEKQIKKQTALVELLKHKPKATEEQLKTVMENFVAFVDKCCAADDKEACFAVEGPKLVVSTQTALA", "experiment": "Counterscreen for inhibitors of T-cell receptor (TCR)-CD3 interaction: Fluorescence-based biochemical high throughput dose response assay to identify inhibitors of T-cell receptor (TCR)-CD3 interaction using a TAMRA-labeled BSA probe.", "assay_type": "functional"}, "[18]": {"target": "T2, RNA-binding protein pos-1 (Caenorhabditis elegans, UniProt G5EF15)", "T2 sequence (G5EF15 whole entry)": "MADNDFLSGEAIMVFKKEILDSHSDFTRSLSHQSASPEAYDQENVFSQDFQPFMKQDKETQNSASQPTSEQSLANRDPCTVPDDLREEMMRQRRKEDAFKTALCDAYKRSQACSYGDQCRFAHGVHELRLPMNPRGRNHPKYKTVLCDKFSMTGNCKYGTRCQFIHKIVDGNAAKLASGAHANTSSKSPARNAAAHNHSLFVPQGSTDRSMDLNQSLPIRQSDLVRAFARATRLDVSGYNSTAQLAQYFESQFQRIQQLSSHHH", "experiment": "disruptors of C. elegans POS-1 RNA interaction – biochemical, fluorescence polarization, dose response (AID 1964);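 also: purified POS-1 fused to maltose binding protein made in E. coli; potency of compounds blocking POS-1 binding to fluorescent RNA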"}, "[19]": {"experiment": "toxicity to human hepatoma HepG2 cells – cell-based, cherry-picked samples, cytotoxicity control, dose response (AID 1159577)", "assay_type": "functional"}}, "note": "Calls of active or inactive are those of the source."}
{"compound": "O=C1C(NS(=O)(=O)c2ccccc2)=C(N2CCCCC2)C(=O)c2ccccc21", "values": [{"measurement": "AC50", "setting": "[1]", "result": "> 70 µM (inactive)"}, {"measurement": "AC50", "setting": "[2]", "result": "> 70 µM (inactive)"}]}
{"compound": "N#C[C@@H]1[C@H](c2ccc(C#Cc3ccccc3F)cc2)[C@@H](CO)N1C(=O)C1CCC1", "values": [{"measurement": "AC50", "setting": "[3]", "result": "29.9 µM (active)"}, {"measurement": "AC50", "setting": "[4]", "result": "31.5 µM (active)"}, {"measurement": "AC50", "setting": "[5]", "result": "22.5 µM (active)"}, {"measurement": "AC50", "setting": "[6]", "result": "31.2 µM (active)"}]}
{"compound": "C[C@@H]1CN([C@H](C)CO)C(=O)c2c(c3ccccc3n2C)-c2ccccc2CO[C@@H]1CN(C)C(=O)[C@H](C)c1ccccc1", "values": [{"measurement": "AC50", "setting": "[7]", "result": "1.66 µM (active)"}, {"measurement": "AC50", "setting": "[8]", "result": "45.5 µM (active)"}, {"measurement": "AC50", "setting": "[9]", "result": "1.1 µM (active)"}, {"measurement": "AC50", "setting": "[10]", "result": "1.39 µM (active)"}, {"measurement": "AC50", "setting": "[11]", "result": "1.33 µM (active)"}]}
{"compound": "Cc1ccc(-c2ccc([C@@H]3[C@H](CO)N4CCCCN(C(=O)Nc5cccc(F)c5)C[C@@H]34)cc2)cc1", "values": [{"measurement": "AC50", "setting": "[12]", "result": "18.1 µM (active)"}, {"measurement": "AC50", "setting": "[13]", "result": "7.83 µM (active)"}, {"measurement": "AC50", "setting": "[14]", "result": "> 70 µM (inactive)"}]}
{"compound": "O=C(N/N=C/c1cc(Cl)cc([N+](=O)[O-])c1O)c1ccc2c(c1)OCO2", "values": [{"measurement": "EC50", "setting": "[15]", "result": "5.65 µM (active)"}, {"measurement": "EC50", "setting": "[16]", "result": "241 µM (active)"}, {"measurement": "EC50", "setting": "[17]", "result": "1.1 µM (active)"}, {"measurement": "IC50", "setting": "Albumin", "result": "> 94.1 µM (inactive)"}, {"measurement": "EC50", "setting": "[18]", "result": "127 µM (active)"}]}
{"compound": "CCCC#Cc1ccc([C@H]2[C@H](CO)N3CCCCN(CC4CCOCC4)C[C@@H]23)cc1", "values": [{"measurement": "AC50", "setting": "[10]", "result": "3.68 µM (active)"}, {"measurement": "AC50", "setting": "[19]", "result": "26.9 µM (active)"}]}
{"compound": "CCCNC[C@@H]1[C@@H](c2ccc(C3=CCCC3)cc2)[C@@H](CO)N1C(=O)C1CCCC1", "values": [{"measurement": "AC50", "setting": "[10]", "result": "4 µM (active)"}, {"measurement": "AC50", "setting": "[19]", "result": "32.4 µM (active)"}]}
{"compound": "COc1cccc(NC(=O)N2[C@H](CO)[C@@H](c3ccccc3)[C@H]2CNCC(C)C)c1", "values": [{"measurement": "AC50", "setting": "[7]", "result": "1.44 µM (active)"}, {"measurement": "AC50", "setting": "[8]", "result": "43.5 µM (active)"}, {"measurement": "AC50", "setting": "[9]", "result": "1.58 µM (active)"}, {"measurement": "AC50", "setting": "[10]", "result": "1.75 µM (active)"}, {"measurement": "AC50", "setting": "[11]", "result": "1.64 µM (active)"}]}
{"compound": "O=C(NC1=C(c2ccc(Oc3ccccc3)cc2)C(=O)c2ccccc2C1=O)c1ccccc1", "values": [{"measurement": "AC50", "setting": "[1]", "result": "> 70 µM (inactive)"}, {"measurement": "AC50", "setting": "[2]", "result": "> 70 µM (inactive)"}]}
